# Experiments:
# Format in all cases: functional
# Candida albicans [1] = assay: Antifungal activity against Candida albicans after 24 hrs by two-fold broth microdilution assay
# Candida tropicalis [2] = assay: Antifungal activity against Candida tropicalis after 24 hrs by two-fold broth microdilution assay
# Aspergillus fumigatus [3] = assay: Antifungal activity against Aspergillus fumigatus after 24 hrs by two-fold broth microdilution assay
# Candida albicans [4] = assay: Antifungal activity against Candida albicans ATCC 90023 after 24 hrs by two-fold broth microdilution assay; conditions: ATCC 90023, 24 h
# Candida parapsilosis [5] = assay: Antifungal activity against Candida parapsilosis ATCC 22019 after 24 hrs by two-fold broth microdilution assay; conditions: Lodderomyces parapsilosis, ATCC 22019, 24 h
# Candida albicans [6] = assay: Fungicidal activity against Candida albicans incubated for 24 hrs followed by plating onto tryptic soy agar medium and measured after 24 hrs by broth microdilution method
# Candida tropicalis [7] = assay: Fungicidal activity against Candida tropicalis incubated for 24 hrs followed by plating onto tryptic soy agar medium and measured after 24 hrs by broth microdilution method
# Candida parapsilosis [8] = assay: Fungicidal activity against Candida parapsilosis ATCC 22019 incubated for 24 hrs followed by plating onto tryptic soy agar medium and measured after 24 hrs by broth microdilution method; conditions: Lodderomyces parapsilosis, ATCC 22019, 24 h
# Candida albicans [9] = assay: Ratio of MFC to MIC for Candida albicans
# Candida tropicalis [10] = assay: Ratio of MFC to MIC for Candida tropicalis
# Candida parapsilosis [11] = assay: Ratio of MFC to MIC for Candida parapsilosis ATCC 22019
# Staphylococcus aureus [12] = assay: Antibacterial activity against Staphylococcus aureus after 24 hrs by micro broth dilution method
# Staphylococcus aureus [13] = assay: Antibacterial activity against methicillin-resistant Staphylococcus aureus after 24 hrs by micro broth dilution method
# Enterococcus faecalis = assay: Antibacterial activity against Enterococcus faecalis after 24 hrs by micro broth dilution method
# Staphylococcus aureus [14] = assay: Antibacterial activity against Staphylococcus aureus ATCC 25923 after 24 hrs by micro broth dilution method; conditions: ATCC 25923, 24 h
# Staphylococcus aureus [15] = assay: Antibacterial activity against Staphylococcus aureus ATCC 29213 after 24 hrs by micro broth dilution method; conditions: ATCC 29213, 24 h
# Klebsiella pneumoniae = assay: Antibacterial activity against Klebsiella pneumoniae after 24 hrs by micro broth dilution method
# Escherichia coli [16] = assay: Antibacterial activity against Escherichia coli after 24 hrs by micro broth dilution method
# Acinetobacter baumannii = assay: Antibacterial activity against Acinetobacter baumannii after 24 hrs by micro broth dilution method
# Pseudomonas aeruginosa [17] = assay: Antibacterial activity against Pseudomonas aeruginosa after 24 hrs by micro broth dilution method
# Pseudomonas aeruginosa [18] = assay: Antibacterial activity against Pseudomonas aeruginosa ATCC 27853 after 24 hrs by micro broth dilution method; conditions: ATCC 27853, 24 h
# Escherichia coli [19] = assay: Antibacterial activity against Escherichia coli ATCC 25922 after 24 hrs by micro broth dilution method; conditions: ATCC 25922, 24 h
# Candida albicans [20] = assay: Synergistic antifungal activity against Candida albicans after 18 hrs in presence of fluconazole by checkerboard assay
# Candida tropicalis [21] = assay: Synergistic antifungal activity against Candida tropicalis after 18 hrs in presence of fluconazole by checkerboard assay
# Aspergillus fumigatus [22] = assay: Synergistic antifungal activity against Aspergillus fumigatus after 18 hrs in presence of fluconazole by checkerboard assay
# Candida albicans [23] = assay: Synergistic antifungal activity against Candida albicans assessed as FIC index after 18 hrs in presence of fluconazole by checkerboard assay
# Candida tropicalis [24] = assay: Synergistic antifungal activity against Candida tropicalis assessed as FIC index after 18 hrs in presence of fluconazole by checkerboard assay
# Aspergillus fumigatus [25] = assay: Synergistic antifungal activity against Aspergillus fumigatus assessed as FIC index after 18 hrs in presence of fluconazole by checkerboard assay
SMILES,MIC (Candida albicans [1]) [µg/mL],MIC (Candida tropicalis [2]) [µg/mL],MIC (Aspergillus fumigatus [3]) [µg/mL],MIC (Candida albicans [4]) [µg/mL],MIC (Candida parapsilosis [5]) [µg/mL],MFC (Candida albicans [6]) [µg/mL],MFC (Candida tropicalis [7]) [µg/mL],MFC (Candida parapsilosis [8]) [µg/mL],Ratio (Candida albicans [9]),MIC (Staphylococcus aureus [12]) [µg/mL],MIC (Staphylococcus aureus [13]) [µg/mL],MIC (Enterococcus faecalis) [µg/mL],MIC (Staphylococcus aureus [14]) [µg/mL],MIC (Staphylococcus aureus [15]) [µg/mL],MIC (Klebsiella pneumoniae) [µg/mL],MIC (Escherichia coli [16]) [µg/mL],MIC (Acinetobacter baumannii) [µg/mL],MIC (Pseudomonas aeruginosa [17]) [µg/mL],MIC (Pseudomonas aeruginosa [18]) [µg/mL],MIC (Escherichia coli [19]) [µg/mL],further results
OC(Cn1cncn1)(Cn1c2ccc(Br)cc2c2cc(Br)ccc21)c1ccc(Cl)c(Cl)c1 (stereo unspecified),4,8,32,32,16,16,8,32,4,64,8,16,16,32,128,64,128,64,32,32,Ratio (Candida tropicalis [10]): 1; Ratio (Candida parapsilosis [11]): 2
OC(Cn1cncn1)(Cn1c2ccccc2c2cc(I)ccc21)c1ccc(F)cc1F (stereo unspecified),16,16,64,64,32,–,–,–,–,128,32,16,16,16,256,256,128,128,256,32,–
OC(Cn1cncn1)(Cn1c2ccccc2c2ccccc21)c1ccc(F)cc1F (stereo unspecified),32,8,128,16,8,32,16,32,1,64,64,16,32,32,64,128,128,128,256,128,Ratio (Candida tropicalis [10]): 2; Ratio (Candida parapsilosis [11]): 4; MIC (Candida albicans [20]): 2 µg/mL; MIC (Candida tropicalis [21]): 4 µg/mL; MIC (Aspergillus fumigatus [22]): 32 µg/mL; fractional inhibitory concentration index (FICI) (Candida albicans [23]): 0.56; fractional inhibitory concentration index (FICI) (Candida tropicalis [24]): 1; fractional inhibitory concentration index (FICI) (Aspergillus fumigatus [25]): 0.37
OC(Cn1cncn1)(Cn1c2ccccc2c2ccc(Br)cc21)c1ccc(F)cc1F (stereo unspecified),16,4,64,16,16,16,4,32,1,64,16,32,16,32,128,64,64,64,128,64,Ratio (Candida tropicalis [10]): 1; Ratio (Candida parapsilosis [11]): 2; MIC (Candida albicans [20]): 4 µg/mL; MIC (Candida tropicalis [21]): 4 µg/mL; MIC (Aspergillus fumigatus [22]): 16 µg/mL; fractional inhibitory concentration index (FICI) (Candida albicans [23]): 1.25; fractional inhibitory concentration index (FICI) (Candida tropicalis [24]): 1.5; fractional inhibitory concentration index (FICI) (Aspergillus fumigatus [25]): 0.32
CCn1cc(C(=O)O)c(=O)c2cc(F)c(N3CCNCC3)cc21 [NORFLOXACIN],–,–,–,–,–,–,–,–,–,2,8,4,1,8,4,16,8,2,0.5,8,–
OC(Cn1cncn1)(Cn1ccc2ccccc21)c1ccc(F)cc1F (stereo unspecified),32,64,32,128,64,–,–,–,–,128,32,64,32,64,128,64,128,64,128,32,–

# — ChEMBL document CHEMBL4270534, “Novel carbazole-triazole conjugates as DNA-targeting membrane active potentiators against clinical isolated fungi” (Eur J Med Chem, 2018)
